A short description of the data set: T1 relaxivity by NMR inversion-recovery. It counts as physicochemical. Particulars: per molecule concentration. Here is the method:
The T 1 relaxivity values of water‐soluble Gd MBTs were tested on 60 MHz (1.4 T) and 300 MHz (7.1 T) NMR spectrometers (Table S1), together with a representative commercial GBCA gadodiamide (i.e., Omniscan^TM). […] The enhanced contrast was directly visualized on a 1.0 T MRI scanner, with 20 μM and 5 μM 8 d, 8 d′, 8 e, and gadodiamide (Figure 5a), and the imaging contrast is consistent with the measured relaxivity values. The preclusion of ion leakage by the robust EMF cage dictates that the real limiting factor of MBT contrast agents is the toxicity of the MBT structure, not individual Gd^3+ ions, which means the molecular relaxivity of the MBTs is the more appropriate and relevant parameter for clinical evaluations. […]
Dynamic light scatt ering ex periments w ere performed using a Malvern Z etasizer Nano Z S90 instrument w ith a standard laser source (4mW, 633nm), to measure the hydrodynamic s ize of the aggregates formed by the samples in s olution. 1 uM sample concentrations were used for all the samples measured. […]
Samples 8b, 8b′ and 8c (16 µM, or 16800 ppb Lu) were taken in dialysis bags (MWCO = 1kD) and dialyzed against 1 50 mL PBS 1x f or 7 days without changing diasylate (outside solution in the beaker). […] With a detection limit < 0.1 ppb, no Lu3+ ions w ere detected in the three solutions, confirming the cage confinement of the metal ions. […]

As to `CNC(=O)CN(CCN(CCN(CC(=O)[O-])CC(=O)NC)CC(=O)[O-])CC(=O)[O-].[Gd+3]` [gadodiamide], the “r1 (1.4 T), T1 relaxivity” value (60 MHz (1.4 T) NMR) was 4.4 mM⁻¹ s⁻¹. For the same molecule, the “r1 (7.1 T), T1 relaxivity” value (300 MHz (7.1 T) NMR) was 3.9 mM-1S-1.

For the origin of these results see PMC9983306, “Structurally Defined Water‐Soluble Metallofullerene Derivatives towards Biomedical Applications” (Angewandte Chemie (International Ed. in English), 2022).
